In experiment [1] the test system is doxorubicin (immobilized ligand, no protein target). Nature of the experiment: Association rate constant for cyclodextrin binding to immobilized doxorubicin by SPR biosensor.
Experiment [2] has the same test system. Nature of the experiment: Association constant for cyclodextrin binding to immobilized doxorubicin by SPR biosensor. For orientation: In SPR one partner is held on a chip, and binding of the other changes the refractive index at the surface.
Experiment [3] shares this test system. As to the kind of experiment: Dissociation rate constant for cyclodextrin binding to immobilized doxorubicin by SPR biosensor.

The source of these data is ChEMBL document CHEMBL1144312, “Synthesis of mono-glucose-branched cyclodextrins with a high inclusion ability for doxorubicin and their efficient glycosylation using Mucor hiemalis endo-beta-N-acetylglucosaminidase” (Bioorg Med Chem Lett, 2005).

Each structure is given as a SMILES string.

Turning to `OCC1OC2OC3C(CO)OC(OC4C(CO)OC(OC5C(COCCCOc6ccc(O[C@@H]7O[C@@H](CO)[C@@H](O)[C@H](O)[C@@H]7O)cc6)OC(OC6C(CO)OC(OC7C(CO)OC(OC8C(CO)OC(OC1C(O)C2O)C(O)C8O)C(O)C7O)C(O)C6O)C(O)C5O)C(O)C4O)C(O)C3O` (stereo partly drawn), the K ass in experiment [1] was 4.6 10E3·1/M·1/s. Moreover, the Ka in experiment [2] is 220 10E3·1/M. Moreover, the K diss in experiment [3] was 2.1 10E-2·1/s.
